Measured values from US20250213532A1, “5-METHOXY-N,N-[…][…] THE TREATMENT OF BIPOLAR DISORDER” (GH RESEARCH IRELAND LIMITED, priority 2022, published 2025).

Test system: patients with treatment-resistant major depressive disorder (TRD)
Test: Phase 1/2 clinical trial of inhaled 5-MeO-DMT in TRD: MADRS
Assay type: in vivo, human
Procedure: When assessing a clinical response at an early timepoint after drug administration (e.g. at 2 hours) based on endpoints which have been developed for a longer recall period (e.g. normally 7 days for the MADRS), a rational modification of such endpoint (e.g. changing the MADRS recall period to 2 hours and carrying forward the sleep item recorded at baseline before drug administration) may be applied. The same applies with respect to the BDRS (in particular the item sleep disturbance) and any other scale applied herein, unless a recall period is specifically indicated.
The Montgomery-Asberg Depression Rating Scale (MADRS) is a ten-item diagnostic questionnaire used to measure the severity of depressive episodes in patients with mood disorders (Montgomery, S. A., & Asberg, M. (1979). A new depression scale designed to be sensitive to change. The British Journal of Psychiatry 134, p.382). It was designed as an adjunct to the Hamilton Rating Scale for Depression (HAM-D), which would be more sensitive to the changes brought on by antidepressants and other forms of treatment. Higher MADRS score indicates more severe depression. The items considered are apparent sadness; reported sadness; inner tension; reduced sleep; reduced appetite; concentration difficulties; lassitude; inability to feel; pessimistic thoughts; and suicidal thoughts, and each item yields a score of 0 to 6. The overall score ranges from 0 to 60. Score ranges used herein for assessing the severity of depressive episodes in patients with bipolar disorder are 13-18 for “mildly ill”, 19-23 for “moderately ill”, 24-36 for “markedly ill”, 37-39 for “severely ill”, and 40 for “extremely ill” (Thase, 2021).
Patients were assigned to different groups.
This trial was designed in two parts.

[1] = 12 mg n=4, 2 hours, baseline 13
[2] = 12 mg n=4, 2 hours, baseline 16

COc1ccc2[nH]cc(CCN(C)C)c2c1 [5-MeO-DMT]
MADRS Suicidal Thoughts percentage improvement (12 mg n=4, 2 hours, baseline 8): 63% | MADRS Suicidal Thoughts score (sum) (12 mg n=4, 2 hours, baseline 8): 3 | MADRS Inner Tension percentage improvement [1]: 85% | MADRS Inner Tension score (sum) [1]: 2 | MADRS Concentration Difficulties percentage improvement [2]: 56% | MADRS Concentration Difficulties score (sum) [2]: 7 | MADRS Inability to Feel percentage improvement [2]: 44% | MADRS Inability to Feel score (sum) [2]: 9 | MADRS Lassitude percentage improvement [2]: 38% | MADRS Lassitude score (sum) [2]: 10 | MADRS Pessimistic Thoughts percentage improvement [2]: 50% | MADRS Pessimistic Thoughts score (sum) [2]: 8 | MADRS Suicidal Thoughts score (sum) (12 mg n=4, Day 1, baseline 8): 5 | MADRS Reduced Sleep score (sum) (12 mg n=4, Day 1, baseline 12): 10 | MADRS Inner Tension percentage improvement (12 mg n=4, Day 1, baseline 13): 77% | MADRS Inner Tension score (sum) (12 mg n=4, Day 1, baseline 13): 3 | MADRS Concentration Difficulties percentage improvement (12 mg n=4, Day 1, baseline 16): 88% | MADRS Concentration Difficulties score (sum) (12 mg n=4, Day 1, baseline 16): 2 | MADRS Inability to Feel score (sum) (12 mg n=4, Day 1, baseline 16): 1 | MADRS Lassitude percentage improvement (12 mg n=4, Day 1, baseline 16): 100% | MADRS Lassitude score (sum) (12 mg n=4, Day 1, baseline 16): 0 | MADRS Pessimistic Thoughts percentage improvement (12 mg n=4, Day 1, baseline 16): 56% | MADRS Pessimistic Thoughts score (sum) (12 mg n=4, Day 1, baseline 16): 7 | MADRS Suicidal Thoughts score (sum) (12 mg n=4, Day 7, baseline 8): 7 | MADRS Reduced Sleep score (sum) (12 mg n=4, Day 7, baseline 12): 6 | MADRS Inner Tension percentage improvement (12 mg n=4, Day 7, baseline 13): 62% | MADRS Inner Tension score (sum) (12 mg n=4, Day 7, baseline 13): 5 | MADRS Concentration Difficulties percentage improvement (12 mg n=4, Day 7, baseline 16): 81% | MADRS Concentration Difficulties score (sum) (12 mg n=4, Day 7, baseline 16): 3 | MADRS Inability to Feel score (sum) (12 mg n=4, Day 7, baseline 16): 1 | MADRS Lassitude percentage improvement (12 mg n=4, Day 7, baseline 16): 81% | MADRS Lassitude score (sum) (12 mg n=4, Day 7, baseline 16): 3 | MADRS Pessimistic Thoughts percentage improvement (12 mg n=4, Day 7, baseline 16): 50% | MADRS Pessimistic Thoughts score (sum) (12 mg n=4, Day 7, baseline 16): 8 | MADRS Suicidal Thoughts percentage improvement (IDR n=8, 2 hours, baseline 11): 73% | MADRS Suicidal Thoughts score (sum) (IDR n=8, 2 hours, baseline 11): 3 | MADRS Inner Tension percentage improvement (IDR n=8, 2 hours, baseline 26): 58% | MADRS Inner Tension score (sum) (IDR n=8, 2 hours, baseline 26): 11 | MADRS Lassitude percentage improvement (IDR n=8, 2 hours, baseline 27): 63% | MADRS Lassitude score (sum) (IDR n=8, 2 hours, baseline 27): 10 | MADRS Pessimistic Thoughts percentage improvement (IDR n=8, 2 hours, baseline 28): 75% | MADRS Pessimistic Thoughts score (sum) (IDR n=8, 2 hours, baseline 28): 7 | MADRS Concentration Difficulties percentage improvement (IDR n=8, 2 hours, baseline 30): 63% | MADRS Concentration Difficulties score (sum) (IDR n=8, 2 hours, baseline 30): 11 | MADRS Inability to Feel percentage improvement (IDR n=8, 2 hours, baseline 36): 67% | MADRS Inability to Feel score (sum) (IDR n=8, 2 hours, baseline 36): 12 | MADRS Suicidal Thoughts score (sum) (IDR n=8, Day 1, baseline 11): 1 | MADRS Reduced Sleep score (sum) (IDR n=8, Day 1, baseline 25): 12 | MADRS Inner Tension percentage improvement (IDR n=8, Day 1, baseline 26): 77% | MADRS Inner Tension score (sum) (IDR n=8, Day 1, baseline 26): 6 | MADRS Lassitude percentage improvement (IDR n=8, Day 1, baseline 27): 81% | MADRS Lassitude score (sum) (IDR n=8, Day 1, baseline 27): 5 | MADRS Pessimistic Thoughts percentage improvement (IDR n=8, Day 1, baseline 28): 86% | MADRS Pessimistic Thoughts score (sum) (IDR n=8, Day 1, baseline 28): 4 | MADRS Concentration Difficulties percentage improvement (IDR n=8, Day 1, baseline 30): 97% | MADRS Concentration Difficulties score (sum) (IDR n=8, Day 1, baseline 30): 1 | MADRS Inability to Feel score (sum) (IDR n=8, Day 1, baseline 36): 2 | MADRS Suicidal Thoughts score (sum) (IDR n=8, Day 7, baseline 11): 3 | MADRS Reduced Sleep score (sum) (IDR n=8, Day 7, baseline 25): 9 | MADRS Inner Tension percentage improvement (IDR n=8, Day 7, baseline 26): 54% | MADRS Inner Tension score (sum) (IDR n=8, Day 7, baseline 26): 12 | MADRS Lassitude percentage improvement (IDR n=8, Day 7, baseline 27): 89% | MADRS Lassitude score (sum) (IDR n=8, Day 7, baseline 27): 3 | MADRS Pessimistic Thoughts percentage improvement (IDR n=8, Day 7, baseline 28): 89% | MADRS Pessimistic Thoughts score (sum) (IDR n=8, Day 7, baseline 28): 3 | MADRS Concentration Difficulties percentage improvement (IDR n=8, Day 7, baseline 30): 70% | MADRS Concentration Difficulties score (sum) (IDR n=8, Day 7, baseline 30): 9 | MADRS Inability to Feel score (sum) (IDR n=8, Day 7, baseline 36): 6
